{
  "source": "patent US20260273018A1",
  "about": "“PHARMACEUTICAL COMPOSITION CONTAINING SPECIFIC SELF-ASSEMBLING PEPTIDE RADA16 FOR TREATING OR PREVENTING LOWER GASTROINTESTINAL DISEASES SUCH AS INFLAMMATORY BOWEL DISEASE” (3-D Matrix, Ltd., priority 2021, published 2026)",
  "key": {"[1]": {"system": "DSS-induced ulcerative colitis model", "assay": "Transanal administration experiment on DSS-induced ulcerative colitis model mice (DAI, body weight, large intestine length, general condition)", "type": "in vivo", "description": "A mouse was made to drink an aqueous solution of 2.5 w/v % dextran sulfate sodium, and the efficacy of a specific peptide having the amino acid sequence indicated by SEQ ID NO 1 on the induced ulcerative colitis model is retrieved by Disease Activity Index. Similarly, Mucosta (registered trademark) and Selbex (registered trademark), which are therapeutic agents for duodenal ulcers, were administered alone or in combination with a peptide having the amino acid sequence indicated by SEQ ID NO 1, and Pentasa (registered trademark) and Rectabul (registered trademark), which are therapeutic agents for ulcerative colitis, were administered alone to compare and study the efficacy. Furthermore, the plasma and removed large intestine collected on the final day of the experiment were shipped to a test contractor. • Dextran sulfate sodium aqueous solution drink period (preparation of dextran sulfate sodium-induced ulcerative colitis model): • Nov. 16, 2019 to Nov. 25, 2019 • Administration period: Nov. 22, 2019 to Nov. 24, 2019 • Disease Activity Index (DAI: Evaluation of body weight, properties, and occult blood): • November 16, November 22, and Nov. 25, 2019 • Blood collected: Nov. 25, 2019 • Large intestine removed and length measured: • Nov. 25, 2019 • Experiment end date: Nov. 25, 2019\n• Species: Mouse (SPF) • Strain: BALB/cAnNCrlCrlj • Source: Charles River Laboratories Japan (Atsugi Breeding Center) • Reason for selection of the test system: The mouse strain is widely used for toxicity and drug efficacy tests. • Sex and order (purchase) count: Male: 60 • Age at purchase: 9 weeks • Quarantine and habituation: Quarantine was carried out for six days from the date of animal purchase. During the quarantine period, the general condition was observed daily and body weight was measured on the 1st day (purchase date), 3rd day, and 7th day (quarantine end date). In addition, the habituation period was from the date of animal purchase to the day before the start of drinking the DSS aqueous solution, the general condition was also observed once a day after the quarantine period, and body weight was measured on a grouping day. • Age at the start of test substance administration: 11 weeks\n• Administration method: Performed under anesthesia by inhalation of Japanese pharmacopeia isoflurane (Mylan Inc., hereinafter abbreviated as isoflurane). • If there is a clot of feces in the rectum, the animal was massaged, and the feces were removed as much as possible. • The administration solution was aspirated into a 1 mL polypropylene syringe cylinder (sterilized disposable product), inserted through the anus part using a mouse sonde (about 1 cm from the tip), and slowly administered transanally. […] Then, it was slowly pulled out and liquid that leaked from the anus part was wiped off. It should be noted that mixing was performed by lightly inverting by hand so that the test substance administration solution and the Rectabul administration solution would not have large bubbles as much as possible and so that the other comparative control substance administration solution would not foam up, and then each solution was aspirated into the syringe cylinder. • Amount of administration liquid: 0.7 mL • Reason for selection: The method of administration to mice is common and appropriate.\n• Animal subjects: All test animals after grouping (excluding non-treatment group) • Model production period: Day 1-10 • Model production method: On the day that drinking of the DSS aqueous started (between 13:00 and 14:00), the water in the glass or polycarbonate water dispenser installed in the cage was changed to a DSS 2.5 w/v % aqueous solution, and the solution was freely ingested. […]"}, "[2]": {"system": "DSS-induced ulcerative colitis model, large intestine tissue", "assay": "Histopathological evaluation of colon HE-stained specimens (Histological Colitis Score)", "type": "in vivo, Mouse", "settings": "compared to the negative control; scores only in the FIGURE", "description": "A histopathological evaluation of the colon HE-stained specimens prepared in example 1 was performed. • 1. […] Histopathological evaluation • Blind evaluation of a pathology score was carried out in accordance with the scoring below for two pieces of the upper and lower parts of the large intestine for each specimen (36 pieces in total). Each score of (1), (2), (3) is multiplied by (4), and the total of these is defined as a “Histological Colitis Score.”^1) It should be noted that the lower part of the large intestine is located on the […], and • the upper part of the large intestine is located to the right thereof.\n• 1) Dieleman LA., et al. Chronic experimental colitis induced by dextran sulfate sodium (DSS) is characterized by Th1 and Th2 cytokines. Clin Exp Immunol. 1998."}, "[3]": {"settings": "Day 10, transanal 0.7 mL/head on Days 7-9"}, "[4]": {"settings": "observation period, considered due to progress of DSS colitis"}},
  "data": [
    {"sequence": "RADARADARADARADA", "values": [
      {"measurement": "average DAI score, Day 7", "setting": "[1]; Day 7 of DSS 2.5 w/v % drinking (first treatment day), group average, 0.7 mL/head transanal once a day on Days 7, 8, 9", "value": 2.8},
      {"measurement": "cases scoring 1 \"+\" for fecal occult blood (visual)", "setting": "[1]; Day 10", "value": "one case"},
      {"measurement": "length of the large intestine, end part of the ileum to just before the rectum (average)", "setting": "[1]; [3]", "value": 45.52, "unit": "mm"},
      {"measurement": "length of the large intestine, end part of the ileum to the anus part (average)", "setting": "[1]; [3]", "value": 75.71, "unit": "mm"},
      {"measurement": "average DAI score, Day 10", "setting": "[1]; Day 10 of DSS drinking, after transanal 0.7 mL/head on Days 7, 8, 9, group average", "value": 2.8},
      {"measurement": "death", "setting": "[1]; found dead on Day 10, cause considered progression of DSS-induced ulcerative colitis", "value": "a death was observed"},
      {"measurement": "general condition: anal bleeding (cases)", "setting": "[1]; observation period", "value": "one case"},
      {"measurement": "general condition: black stool (cases)", "setting": "[1]; observation period", "value": "one case"},
      {"measurement": "general condition: perianal hair stains (pale red) (cases)", "setting": "[1]; observation period", "value": "one case"},
      {"measurement": "general condition: piloerection (cases)", "setting": "[1]; observation period", "value": "one case"},
      {"measurement": "general condition: irregular respiration (cases)", "setting": "[1]; [4]", "value": "one to three cases"},
      {"measurement": "general condition: small amount of defecation (cases of 5 animals)", "setting": "[1]; [4]", "value": "one to three cases"},
      {"measurement": "DAI score on Day 10 compared to Day 7", "setting": "[1]; result in words, control group increased", "value": "did not increase compared to Day 7"},
      {"measurement": "body weight loss on Day 10 compared to Day 7", "setting": "[1]; result in words, control group lost further weight", "value": "no further body weight loss was observed compared to Day 7"},
      {"measurement": "histological score: suppression of intestinal tissue inflammation", "setting": "[2]", "value": "had an effect of suppressing intestinal tissue inflammation compared to the negative control"}
    ]}
  ]
}
